In US20030073850A1, “4-Imidazole derivatives of benzyl and restricted benzyl sulfonamides, sulfamides, ureas, carbamates, and amides and their use” (priority 1998, published 2003):
Read-outs that look alike come from different tables or passages of the source.

Columns and labels:
[1] = biological target: T1, α1d (rat receptor expressed in mouse fibroblasts) (Rattus norvegicus, UniProt P23944); experiment: Radioligand binding, [3H]-prazosin, α1d
T1 construct: expressed in transfected cells; host or cells: mouse fibroblasts
T1 sequence (P23944 1-561): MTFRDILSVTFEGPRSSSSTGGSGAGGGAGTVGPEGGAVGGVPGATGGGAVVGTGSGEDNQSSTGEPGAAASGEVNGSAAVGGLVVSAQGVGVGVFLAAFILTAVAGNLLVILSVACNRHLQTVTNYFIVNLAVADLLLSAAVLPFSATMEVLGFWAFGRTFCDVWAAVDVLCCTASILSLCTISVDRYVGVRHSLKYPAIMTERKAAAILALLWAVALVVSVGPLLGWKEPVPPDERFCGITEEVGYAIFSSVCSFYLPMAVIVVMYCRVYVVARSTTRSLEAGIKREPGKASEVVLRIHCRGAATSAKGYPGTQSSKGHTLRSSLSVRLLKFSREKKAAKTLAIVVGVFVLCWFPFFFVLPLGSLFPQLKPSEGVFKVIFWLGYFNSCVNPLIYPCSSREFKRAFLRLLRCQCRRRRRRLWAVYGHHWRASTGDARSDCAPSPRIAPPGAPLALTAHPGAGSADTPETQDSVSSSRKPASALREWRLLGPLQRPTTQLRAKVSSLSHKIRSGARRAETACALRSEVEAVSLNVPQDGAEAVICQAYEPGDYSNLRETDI
Summary of the method: (§1)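 [3H]-prazosin radioligand displacement; α1A from rat submaxillary gland tissue, α1b hamster and α1d rat receptors each expressed in mouse fibroblasts.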

α1A (rabbit urethra) = biological target: T2, α1A (rabbit urethra) (Oryctolagus cuniculus, UniProt O02824); experiment: Agonist tissue response, contraction of rabbit urethra; assay type: biochemical; conditions: values without asterisk, read-out: Agonist Tissue Response (pD2) α1A (rab ureth) (converted)
T2 construct: tested for α1A functional activity using rabbit urethra; from tissue; host or cells: rabbit urethra (female New Zealand white rabbits)
T2 sequence (O02824 1-466): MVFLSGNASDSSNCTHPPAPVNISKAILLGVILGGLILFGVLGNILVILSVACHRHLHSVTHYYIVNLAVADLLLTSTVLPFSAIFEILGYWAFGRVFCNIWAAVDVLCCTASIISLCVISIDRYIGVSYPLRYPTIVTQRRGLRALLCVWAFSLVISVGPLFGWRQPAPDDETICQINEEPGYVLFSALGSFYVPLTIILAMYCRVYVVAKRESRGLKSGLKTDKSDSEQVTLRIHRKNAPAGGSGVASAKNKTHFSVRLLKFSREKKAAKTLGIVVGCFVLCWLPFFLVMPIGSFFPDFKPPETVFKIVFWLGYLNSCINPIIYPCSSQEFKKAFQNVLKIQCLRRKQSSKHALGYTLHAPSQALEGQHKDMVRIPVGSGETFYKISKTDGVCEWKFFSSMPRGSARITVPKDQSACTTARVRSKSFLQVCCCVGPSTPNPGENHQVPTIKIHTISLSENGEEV
Method: Most of the compounds were tested for α1A functional activity using rabbit urethra as follows. Female New Zealand white rabbits (2.0-3.5 Kg) were sedated with CO2 and decapitated. […] Subsequent experimental conditions were as described above for the other tissues. Agonist concentration response curves were cumulative except for the vas deferens assay in which the transient response made such measurements impractical.

[2] = biological target: T3, α1A (rat submaxillary gland) (Rattus norvegicus, UniProt P43140); experiment: Radioligand binding, [3H]-prazosin, α1A
T3 construct: α1A (rat submaxillary gland); from tissue; host or cells: rat submaxillary gland
T3 sequence (P43140 1-466): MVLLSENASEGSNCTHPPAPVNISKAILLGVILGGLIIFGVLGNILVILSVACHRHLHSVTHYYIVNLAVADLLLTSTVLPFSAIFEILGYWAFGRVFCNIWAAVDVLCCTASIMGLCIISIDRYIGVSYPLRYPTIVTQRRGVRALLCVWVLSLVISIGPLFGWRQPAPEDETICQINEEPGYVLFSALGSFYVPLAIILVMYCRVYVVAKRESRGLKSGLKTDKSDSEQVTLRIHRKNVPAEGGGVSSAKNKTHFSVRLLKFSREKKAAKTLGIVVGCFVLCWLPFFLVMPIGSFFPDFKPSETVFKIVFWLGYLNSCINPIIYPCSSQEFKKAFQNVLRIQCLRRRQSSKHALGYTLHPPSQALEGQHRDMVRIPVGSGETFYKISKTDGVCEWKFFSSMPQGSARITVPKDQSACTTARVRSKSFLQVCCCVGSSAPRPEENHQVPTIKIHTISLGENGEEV
Summary of the method: as §1

[3] = biological target: T4, α1b (hamster receptor expressed in mouse fibroblasts) (Mesocricetus auratus, UniProt P18841); experiment: Radioligand binding, [3H]-prazosin, α1b
T4 construct: expressed in transfected cells; host or cells: mouse fibroblasts
T4 sequence (P18841 1-515): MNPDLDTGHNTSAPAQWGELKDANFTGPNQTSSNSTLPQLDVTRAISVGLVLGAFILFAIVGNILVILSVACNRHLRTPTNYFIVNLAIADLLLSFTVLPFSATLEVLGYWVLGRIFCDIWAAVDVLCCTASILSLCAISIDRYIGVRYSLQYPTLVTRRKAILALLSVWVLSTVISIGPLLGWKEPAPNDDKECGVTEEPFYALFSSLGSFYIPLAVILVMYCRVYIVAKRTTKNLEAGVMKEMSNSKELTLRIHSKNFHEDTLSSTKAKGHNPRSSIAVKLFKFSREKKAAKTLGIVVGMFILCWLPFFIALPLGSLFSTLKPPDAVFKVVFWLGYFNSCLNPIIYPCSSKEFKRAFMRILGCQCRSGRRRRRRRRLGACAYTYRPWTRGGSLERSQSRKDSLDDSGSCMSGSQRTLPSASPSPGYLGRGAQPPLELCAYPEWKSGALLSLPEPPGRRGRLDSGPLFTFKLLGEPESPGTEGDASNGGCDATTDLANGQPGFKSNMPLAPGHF
Summary of the method: as §1

anesthetized dogs [4] = experiment: Mean arterial pressure (MAP) in anesthetized dogs; assay type: in vivo, dog; conditions: iv dose causing a maximum increase in MAP of 20 mm Hg, anesthetized female Beagle dogs
From the text: (§2) Female Beagle dogs (Marshall Farms, North Rose, N.Y.) greater that 2 years of age and weighing between 12 and 15 kg were used in these studies. At least 2 weeks prior to any agonist dosing, dogs were instrumented for the chronic measurement of arterial blood pressure by implanting a telemetry transducer/transmitter (TA11PA-C40, Data Sciences International, St. Paul, Minn.) into a carotid artery.
(§3) On the test day, dogs fasted since the previous afternoon were pre-anesthetized with thiopental sodium 15 mg/kg i.v. (Pentothal™, Abbott) and intubated. Anesthesia was maintained by allowing the dog to spontaneously breathe a mixture of isoflurane (2.5 to 3 volume %) and oxygen delivered by a Narkomed Standard anesthesia system (North American Drager, Telford, Pa.). An Abbocath-T™ i.v. catheter (18-G, Abbott) was inserted into the cephalic vein for the administration of agonists. A telemetry receiver (RA1310, DataSciences) was placed under the head of each dog and was interfaced to a computerized data acquisition system (Modular Instruments Inc.(MI2), Malvern, Pa.) which allowed for the continuous calibrated recording of arterial blood pressure which was electronically filtered to determine its mean value (MAP).
(§4) From the resulting dose response curve, an ED5 value, for the dose causing a maximum increase in IUP of 5 mm Hg, could be estimated. An ED20 value for the dose causing a maximum increase in MAP of 20 mm Hg could also be estimated. A selectivity ratio of MAP ED20 vs. IUP ED, was calculated.

anesthetized dogs [5] = experiment: Intraurethral pressure (IUP) in anesthetized dogs; assay type: in vivo, dog; conditions: for ED (5 mm Hg): Canis lupus familiaris, iv dose causing a maximum increase in IUP of 5 mm Hg, anesthetized female Beagle dogs, read-out: Mean IUP ED5; for Mean Selectivity Ratio MAP ED20/IUP ED5: anesthetized dogs, iv
From the text: as §2, §3
Dogs with chronic telemetry implants anesthetized as described above were placed in dorsal recumbency and a balloon catheter was inserted into the urethral orifice and advanced approximately 15 cm until the tip was well inside the bladder. The balloon was then inflated with 1 ml of room air and the catheter slowly withdrawn until resistance (corresponding to the bladder neck) was evident. The balloon was then deflated and the catheter withdrawn additional 2 cm. The balloon was then reinflated and its catheter port connected to a Gould Statham P23Dd pressure transducer interfaced to a computerized data acquisition system (Modular Instruments, Inc., Malvern, Pa.) for the measurement of the intraurethral pressure. Increasing iv doses of test agonists were administered and the maximum effect of each dose on IUP was recorded. The effect of each dose was allowed to return to baseline before the next dose was given.
as §4

α1B (rat spleen) = biological target: T5, α1B (rat spleen) (Rattus norvegicus, UniProt P15823); experiment: Agonist tissue response, contraction of rat spleen; assay type: biochemical; conditions: read-out: Agonist Tissue Response (pD2) α1B (rat spleen) (converted)
T5 construct: α1B (rat spleen) and α1D (rat aorta) receptors; from tissue; host or cells: rat spleen
T5 sequence (P15823 1-515): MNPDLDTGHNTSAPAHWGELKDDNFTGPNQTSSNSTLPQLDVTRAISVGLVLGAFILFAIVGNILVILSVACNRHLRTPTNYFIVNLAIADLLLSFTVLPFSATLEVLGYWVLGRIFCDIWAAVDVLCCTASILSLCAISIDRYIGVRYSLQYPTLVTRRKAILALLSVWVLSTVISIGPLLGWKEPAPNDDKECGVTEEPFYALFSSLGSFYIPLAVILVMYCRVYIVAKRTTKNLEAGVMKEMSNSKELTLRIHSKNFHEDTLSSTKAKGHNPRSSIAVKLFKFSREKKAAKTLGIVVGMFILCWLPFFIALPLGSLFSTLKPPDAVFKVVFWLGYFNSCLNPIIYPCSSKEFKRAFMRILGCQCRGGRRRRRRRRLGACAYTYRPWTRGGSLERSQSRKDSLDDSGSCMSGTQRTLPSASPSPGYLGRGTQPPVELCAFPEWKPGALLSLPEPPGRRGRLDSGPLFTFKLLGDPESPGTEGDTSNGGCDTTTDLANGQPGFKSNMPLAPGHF

[6] = rat receptor expressed in mouse fibroblasts, [3H]-prazosin, read-out: Radioligand Binding Ki α1d (Rat)
[7] = hamster receptor expressed in mouse fibroblasts, [3H]-prazosin, read-out: Radioligand Binding Ki α1b (Hamster)

| Structure (SMILES) | Ki [1, 6] | melting point | EC50 (α1A (rabbit urethra)) | Ki [2] | Ki [3, 7] | Mean MAP ED20 (anesthetized dogs [4]) | ED (5 mm Hg) (anesthetized dogs [5]) | Mean Selectivity Ratio MAP ED20/IUP ED5 (anesthetized dogs [5]) | Ki [1] | EC50 (α1B (rat spleen)) | Ki [3] |
| --- | --- | --- | --- | --- | --- | --- | --- | --- | --- | --- | --- |
| CS(=O)(=O)Nc1cc(F)cc2c1OCCC2c1c[nH]cn1.O=C(O)/C=C\C(=O)O (stereo not shown) [Example 90, N-[6-fluoro-4-(1H-imidazol-4-yl)-3,4-dihydro-2H-chromen-8-yl]methanesulfonamide Maleate] | 10 µM | 187 to 190 °C | 0.49 µM | 0.237 µM | 10 µM |  |  |  |  |  |  |
| CCN(C(=O)Nc1cccc2c1CCCC2c1c[nH]cn1)C1CCCCC1 (stereo not shown) [Example 113, N-cyclohexyl-N-ethyl-N′-[5-(1H-imidazol-4-yl)-5,6,7,8-tetrahydro-1-naphthalenyl]urea] | 2.11 µM |  | 3.98 µM | 0.536 µM | 10 µM | 733.7 nmol/kg |  |  |  |  |  |
| C=C(c1cccc(NS(C)(=O)=O)c1)c1c[nH]cn1 [Example 92, N-{3-[1-(1H-imidazol-4-yl)vinyl]phenyl}methanesulfonamide] | 1.98 µM |  | 3.24 µM | 0.689 µM | 10 µM | 652.06 nmol/kg | 0.397 µmol/kg |  |  |  |  |
| CC1CC(C)CN(C(=O)Nc2cccc3c2CCCC3c2c[nH]cn2)C1 (stereo not shown) [Example 115, N-[5-(1H-imidazol-4-yl)-5,6,7,8-tetrahydro-1-naphthalenyl]-3,5-dimethyl-1-piperidinecarboxamide] | 10 µM |  | 5.5 µM | 1.16 µM | 10 µM | 500 nmol/kg | 0.5 µmol/kg | 1.05 |  |  |  |
| CCS(=O)(=O)Nc1cccc(C(=C2CCCCC2)c2c[nH]cn2)c1 [Example 56] |  |  |  |  |  |  |  |  | 0.00246 µM | 186 µM | 0.0161 µM |
| O=C(Nc1cccc2c1CCCC2c1c[nH]cn1)N1CCOCC1 (stereo not shown) [Example 117, N-[5-(1H-imidazol-4-yl)-5,6,7,8-tetrahydro-1-naphthalenyl]-4-morpholinecarboxamide] |  |  | 5.37 µM | 1.1 µM |  | 645 nmol/kg | 0.873 µmol/kg | 0.75 | 10 µM |  | 10 µM |
| O=C(Nc1cccc2c1CCCC2c1c[nH]cn1)N1CCCCC1 (stereo not shown) [Example 114, N-[5-(1H-imidazol-4-yl)-5,6,7,8-tetrahydro-1-naphthalenyl]-1-piperidinecarboxamide] | 5.62 µM |  | 9.12 µM | 1.05 µM | 10 µM | 1074.07 nmol/kg | 1.68 µmol/kg | 0.97 |  |  |  |
| CCCN(CCC)C(=O)Nc1cccc2c1CCCC2c1c[nH]cn1 (stereo not shown) [Example 112, N′-[5-(1H-imidazol-4-yl)-5,6,7,8-tetrahydro-1-naphthalenyl]-N,N-dipropylurea] | 10 µM |  | 7.94 µM | 1.24 µM | 10 µM |  |  |  |  |  |  |
| O=S(=O)(Cc1ccccc1)Nc1cccc2c1CCCC2c1cnc[nH]1 (stereo not shown) [Example 67, N-[5-(1H-imidazol-5-yl)-5,6,7,8-tetrahydro-1-naphthalenyl](phenyl)methanesulfonamide] | 3.74 µM |  | 107 µM | 0.901 µM | 2.39 µM |  |  |  |  |  |  |
| O=S(=O)(C=Cc1ccccc1)Nc1cccc2c1CCCC2c1cnc[nH]1 (stereo not shown) [Example 70, N-[5-(1H-imidazol-5-yl)-5,6,7,8-tetrahydro-1-naphthalenyl]-2-phenyl-1-ethenesulfonamide] | 0.353 µM |  | 81.3 µM | 0.43 µM | 0.387 µM |  |  |  |  |  |  |
